Experimental data as given in patent publication US7297523B2, “Human elongase genes and uses thereof” (Xenon Pharmaceuticals Inc., priority 2000, dated 2007).

How the values were obtained:
[1] = biological target: T1, ELG3/V5-His (Homo sapiens, UniProt Q9NXB9); assay: Elongation of [1-14C]20:5n-3 in microsomes of yeast expressing ELG3/V5-His; assay type: biochemical; details: for % conversion 24:5n-3 / % conversion 22:5n-3 / % conversion Total: substrate [1-14C]20:5n-3 7.2 μM; for % conversion 24:5n-3: control 5.0; for % conversion 22:5n-3: control 13.7; for % conversion Total: control 18.7
T1 construct: made in house; host or cells: Saccharomyces cerevisiae (INVSc1), microsomal fraction
T1 sequence (Q9NXB9 1-296): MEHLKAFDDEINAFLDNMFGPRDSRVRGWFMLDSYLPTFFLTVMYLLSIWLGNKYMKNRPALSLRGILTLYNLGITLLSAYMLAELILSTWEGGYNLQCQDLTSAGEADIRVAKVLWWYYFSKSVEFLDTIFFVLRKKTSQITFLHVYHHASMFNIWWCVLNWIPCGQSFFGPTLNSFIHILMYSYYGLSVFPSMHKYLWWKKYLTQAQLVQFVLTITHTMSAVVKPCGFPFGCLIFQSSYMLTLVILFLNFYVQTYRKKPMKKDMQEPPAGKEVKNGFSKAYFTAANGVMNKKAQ
Experimental: A sulphoxide derivative of S-propylbutylethylthiocarbamate (pebulate sulphoxide) was obtained from Zeneca Agrochemicals, UK, and dissolved in ethanol at a concentration of 5 mM.
A 51 culture of Saccharomyces cerevisiae transformed with pTh1017.1 encoding ELG3/V5-His was started with a cell density of approximately 3.2×10^5 cells/ml (O.D.600 0.4) using SC-U medium with 1% raffinose. After 8 h of incubation at 30° C. in an orbital shaker at 270 rpm, galactose was added to a final concentration of 2%. Yeast were incubated for an additional 12 h until they were harvested by centrifugation at 2060×g for 10 minutes at 4° C. and washed with water. The cell pellet was resuspended in ⅓ of its volume in a pH 7.2 isolation buffer (80 mM Hepes-KOH, 10 mM KCl, 320 mM sucrose, 2 mM PMSF and a protease inhibitor cocktail). The cell suspension was poured into a mortar containing liquid N2 and ground with sand using a ceramic pestle. The yeast powder was transferred to a conical test tube, to which ⅔ of the pellet volume of isolation buffer was added. The sand was removed by centrifugation at 228×g for 1 min and the suspension centrifuged at 10,000×g for 20 min to separate cell debris, nuclei and mitochondria. The supernatant was centrifuged at 106,000×g for 1.5 h to obtain the microsomal pellet, which was resuspended in storage buffer (80 mM Hepes-KOH, 10 mM KCl, 320 mM sucrose, 1 mM PMSF and a protease inhibitor cocktail) to a final protein concentration of 20 μg/μl. The protein concentration was measured by the method of Lowry et al. (1951, .J Biol. Chem., 193: 265-275) with bovine serum albumin as standard.
The activity of ELG3/V5-His was determined by measuring the conversion of [1-^14C]20:5n-3 to [1-^14C]22:5n-3 and [1-^14C]24:5n-3. Reactions were started by adding 500 μg of yeast microsomal protein to pre-incubated tubes containing 0.20 μCi of the substrate fatty acid at a final concentration of 7.2 μM in 0.25 ml of 80 mM Hepes-KOH (pH 7.2) with 43 mM MgCl2, 1.0 mM ATP,500 μM NADPH, 10 μM coenzyme A, 100 μM […] (as lithium salt) and pebulate sulphoxide at concentrations that ranged between 1 to 100 μM. The tubes were vortexed vigorously and after 30 min incubation at 37° C. in a shaking water bath, the reactions were stopped by the addition of 2 ml of 10% (w/v) KOH in ethanol. Lipids in the incubation mixture were saponified at 80° C. for 45 min under N2. The samples were then left in ice for 5 min before acidification with 750 μl of concentrated HCl. […] The fatty acid methyl esters were analyzed by HPLC as described in Example 19.
The enzyme activity was expressed in percent conversion of radiolabelled 20:5n-3 into its elongation products. Alternatively, it can be expressed in pmol of the fatty acids produced/mg microsomal protein/min.

[2] = system: rat liver elongase; assay: Elongation of [1-14C]20:5n-3 in rat liver microsomes; assay type: biochemical; details: for % conversion 24:6n-3: delta-6-desaturation product of 24:5n-3, control 9.1; for % conversion 22:5n-3 / % conversion 24:5n-3 / % conversion Total: substrate [1-14C]20:5n-3; for % conversion 22:5n-3: control 11.6; for % conversion 24:5n-3: control 39.7; for % conversion Total: control 60.4
Experimental: Wistar rats under light halothane (15% in mineral oil) anesthesia were sacrificed by exsanguination during periods of high enzyme activity. Livers were immediately rinsed with cold 0.9% NaCl solution, weighed and minced with scissors. All procedures were performed at 4° C. unless specified-otherwise. Livers were homogenized in a solution (1:3 w/v) containing 0.25 M sucrose, 62 mM potassium phosphate buffer (pH 7.0), 0.15 M KCl, 1.5 mM N-acetylcysteine, 5 mM MgCl2, and 0.1 mM EDTA using 4 strokes of a Potter-Elvehjem tissue homogenizer. The homogenate was centrifuged at 10,400×g for 20 min to pellet mitochondria and cellular debris. The supernatant was filtered through a 3-layer cheesecloth and centrifuged at 105,000×g for 60 min. The microsomal pellet was gently resuspended in the same homogenization solution with a small glass/teflon homogenizer and stored at −80° C. The absence of mitochondrial contamination was enzymatically assessed as described elsewhere (Kilberg, M. S. and Christensen H. N., 1979, Biochemistry, 18: 1525-1530). The protein concentration was measured by the method of Lowry et al (1951, J. Biol. Chem., 193: 265-275) with bovine serum albumin as standard.
Reactions were performed using 500 μg of rat liver microsomal protein with the same concentrations of pebulate sulphoxide, radiolabelled fatty acid, conditions and procedures described in Example 21.
The enzyme activity was expressed in percent conversion of radiolabelled 20:5n-3 into its elongation and final delta-6-desaturation products (i.e., 22:5n-3, 24:5n-3 and 24:6n-3).

[3] = system: 18:3n-3; assay: Elongation of [1-14C]18:3n-3 in yeast expressing human elongases (RP-HPLC); details: for Percent Elongation of 18:3n-3 to 20:3: product 20:3n-3
From the text: (§1) For the expression of ELG1, ELG2, ELG3, ELG4, ELG5, ELG6 or ELG7 the yeast were transformed with pTh1009.1, pTh1014.1, pTh1015.1, pTh1021.1, pTh1018.1, pTh1041.1 or pTh1044.1, respectively. For the expression of ELG1/V5-His, ELG2/V5-His, ELG3/V5-His, ELG4/V5-His, ELG5/V5-His, ELG6/V5 -His or ELG7/V5-His the yeast were transformed with pTh1009.2, pTh1014.2, pTh1017.1, pTh1021.2, pTh1019.1, pTh1042.1 or pTh1045.1, respectively. Recombinant yeast cells were selected on SC-U medium.
(§2) Transformed yeast (approximately 3.2×10^6 cells/ml; O.D.600 0.4) were incubated in a 125 ml Erlenmeyer containing 10 ml of SC-U medium with 1% raffinose, 1% tergitol and 25 μM of the lithium salts of either [1-^14C]18:3n-3 (1 μCi), [1-^14C]18:3n-6 (1 μCi), [1-^14C]20:4n-6 (2 μCi), or [1-^14C]20:5n-3 (2 μCi). After 4 h incubation in an orbital incubator at 270 rpm and 30° C., cells reached the log phase and the transgene, expression was induced with galactose 30° C., cells reached the log phase and the transgene expression was induced with galactose (2% final concentration). The yeast were incubated for an additional 19 h and then harvested by centrifugation at 5000×g for 10 minutes at 4° C.
(§3) Cells were washed with Tris-HCl buffer (100 mM, pH 8.0) containing 0.1% BSA and total lipids were extracted as described below. The radioactivity from aliquots of the incubation medium, supernatant and cells was determined by liquid scintillation counting using a LS6500-Scintillation System (Beckman).
(§4) Alternatively, cells were resuspended in 1.5 ml of water and saponified with 2 ml of 10% KOH in ethanol. The total lipid extracts or the free fatty acids from the saponified samples were methylated using boron trifluoride in methanol at 90° C. for 30 min. The resultant methyl esters (FAME) were analyzed as described below.
(§5) Analyses of radiolabelled FAME were carried out on a Hewlett Packard 1090, series II chromatograph equipped with a diode array detector set at 205 nm, a radioisotope detector (model 171, Beckman, CA) with a solid scintillation cartridge (97% efficiency for ^14C-detection) and a reverse phase ODS (C-18) Beckman column (250 mm×4.6 mm i.d.; 5 μm particle size) attached to a pre-column with a μBondapak C-18 (Beckman) insert. FAME were separated isocratically with acetonitrile/water (95.5 v/v) at a flow rate of 1 ml/min and were identified by comparison with authentic standards. Alternatively, the eluted FAME were collected and the solvent evaporated. FAME were re-dissolved in hexane for further analysis by gas chromatography.

[4] = system: 18:3n-6; assay: Elongation of [1-14C]18:3n-6 in yeast expressing human elongases (RP-HPLC); details: untagged elongase, 25 μM substrate; for Percent Elongation of 18:3n-6 to 20:3: product 20:3n-6
From the text: as §1, §2, §3, §4, §5

[5] = system: 20:4n-6; assay: Elongation of [1-14C]20:4n-6 in yeast expressing human elongases (RP-HPLC); details: for Percent Elongation of 20:4n-6 to 22:4: product 22:4n-6
From the text: as §1, §2, §3, §4, §5

[6] = system: 20:5n-3; assay: Elongation of [1-14C]20:5n-3 in yeast expressing human elongases (RP-HPLC); details: untagged elongase, 25 μM substrate
From the text: as §1, §2, §3
Alternatively, cells were resuspended in 1.5 ml of water and saponified with 2 ml of 10% KOH in ethanol. The total lipid extracts or the free fatty acids from the saponified samples were methylated using boron trifluoride in methanol at 90° C. for 30 min. The resultant methyl esters (FAME) were analyzed as described below. […]

[7] = untagged elongase, 25 μM substrate

## CCCCN(CC)C(=O)[S+]([O-])CCC (centres unmarked) [Pebulate sulphoxide, sulphoxide derivative of S-propylbutylethylthiocarbamate]
[1]; 1 μM
  % conversion 24:5n-3: 5.6%
  % conversion 22:5n-3: 13.8%
  % conversion Total: 19.4%
[1]; 10 μM
  % conversion 24:5n-3: 6.6%
  % conversion 22:5n-3: 12.8%
  % conversion Total: 19.4%
[1]; 50 μM
  % conversion 24:5n-3: 4.6%
  % conversion 22:5n-3: 11.3%
  % conversion Total: 15.9%
[1]; 100 μM, 20:5n-3 as substrate
  reduction of elongation (ELG3/V5-His activity): approximately 27%
[1]; 100 μM
  % conversion 24:5n-3: 4.3%
  % conversion 22:5n-3: 9.4%
  % conversion Total: 13.7%
[2]; 1 μM
  % conversion 24:6n-3: 9.6%
  % conversion 22:5n-3: 12.5%
  % conversion 24:5n-3: 47.5%
  % conversion Total: 69.3%
[2]; 10 μM
  % conversion 24:6n-3: 10.9%
  % conversion 22:5n-3: 12.5%
  % conversion 24:5n-3: 47.2%
  % conversion Total: 70.7%
[2]; 50 μM
  % conversion 24:6n-3: 7.9%
  % conversion 22:5n-3: 12.2%
  % conversion 24:5n-3: 48.7%
  % conversion Total: 68.8%
[2]; 100 μM, 20:5n-3 as substrate
  reduction of elongation (rat liver elongase activity): approximately 30%
[2]; 100 μM
  % conversion 24:6n-3: 4.5%
  % conversion 22:5n-3: 10.2%
  % conversion 24:5n-3: 28.0%
  % conversion Total: 42.7%

B1: ELG7: human PUFA elongase (SEQ ID NO: 12) expressed in yeast from plasmid pTh1044.1 (protein)
chain: MGLLDSEPGSVLNVVSTALNDTVEFYRWTWSIADKRVENWPLMQSPWPTLSISTLYLLFVWLGPKWMKDREPFQMRLVLIIYNFGMVLLNLFIFRELFMGSYNAGYSYICQSVDYSNNVHEVRIAAALWWYFVSKGVEYLDTVFFILRKKNNQVSFLHVYHHCTMFTLWWIGIKWVAGGQAFFGAQLNSFIHVIMYSYYGLTAFGPWIQKYLWWKRYLTMLQLIQFHVTIGHTALSLYTDCPFPKWMHWALIAYAISFIFLFLNFYIRTYKEPKKPKAGKTAMNGISANGVSKSEKQLMIENGKKQKNGKAKGD
modifications: human
[3]; V5-His tagged elongase
  Percent Elongation of 18:3n-3 to 20:3: 4%
[3]; [7]
  Percent Elongation of 18:3n-3 to 20:3: 5%

B2: ELG4: human PUFA elongase (SEQ ID NO: 5) expressed in yeast from plasmid pTh1021.1 (protein)
chain: MAFSDLTSRTVHLYDNWIKDADPRVEDWLLMSSPLPQTILLGFYVYFVTSLGPKLMENRKPFELKKAMITYNFFIVLFSVYMCYEFVMSGWGIGYSFRCDIVDYSRSPTALRMARTCWLYYFSKFIELLDTIFFVLRKKNSQVTFLHVFHHTIMPWTWWFGVKFAAGGLGTFHALLNTAVHVVMYSYYGLSALGPAYQKYLWWKKYLTSLQLVQFVIVAIHISQFFFMEDCKYQFPVFACIIMSYSFMFLLLFLHFWYRAYTKGQRLPKTVKNGTCKNKDN
modifications: human
[4]
  Percent Elongation of 18:3n-6 to 20:3: 20%
[4]; product 22:3n-6
  Percent Elongation of 18:3n-6 to 22:3: 4%
[5]; V5-His tagged elongase
  Percent Elongation of 20:4n-6 to 22:4: 12%
[5]; [7]
  Percent Elongation of 20:4n-6 to 22:4: 24%
[5]; untagged elongase, 25 μM substrate, product 24:4n-6
  Percent Elongation of 20:4n-6 to 24:4: 2%
[3]; [7]
  Percent Elongation of 18:3n-3 to 20:3: 10%
[3]; untagged elongase, 25 μM substrate, product 22:3n-3
  Percent Elongation of 18:3n-3 to 22:3: 4%
[6]; product 22:5n-3
  Percent Elongation of 20:5n-3 to 22:5: 15%
[6]; product 24:5n-3
  Percent Elongation of 20:5n-3 to 24:5: 3%

B3: ELG6: human PUFA elongase (SEQ ID NO: 9) expressed in yeast from plasmid pTh1041.1 (protein)
chain: MVTAMNVSHEVNQLFQPYNFELSKDMRPFFEEYWATSFPIALIYLVLIAVGQNYMKERKGFNLQGPLILWSFCLAIFSILGAVRMWGIMGTVLLTGGLKQTVCFINFIDNSTVKFWSWVFLLSKVIELGDTAFIILRKRPLIFIHWYHHSTVLVYTSFGYKNKVPAGGWFVTMNFGVHAIMYTYYTLKAANVKPPKMLPMLITSLQILQMFVGAIVSILTYIWRQDQGCHTTMEHLFWSFILYMTYFILFAHFFCQTYIRPKVKAKTKSQ
modifications: human
[4]
  Percent Elongation of 18:3n-6 to 20:3: 2%
[3]; V5-His tagged elongase
  Percent Elongation of 18:3n-3 to 20:3: 3%
[3]; [7]
  Percent Elongation of 18:3n-3 to 20:3: 3%
